For assay [1] the following is noted: in vivo; cited from earlier work.
Assay [2] relates to relapsing remitting EAE in SJL/J mice. Nature of the assay: Prophylactic (pre-treatment) efficacy in relapsing remitting EAE. The format is in vivo. To be noted: pre-treatment 0.5 mg in IFA; FIG. 2i. Here is the method:
(§1) To induce RR EAE or chronic progressive EAE, SJL/J or C57BL6/J mice were immunized subcutaneously with 0.2 mg of MBP (85-109) or 0.1 mg MOG (35-55) emulsified in CFA and 200 ng of pertussis toxin was injected intraperitoneally on day 0 and day 2 so as to permeablize the blood brain barrier. All the animals in various experimental groups were scored daily for clinical disability on a scale of 0-6 where 0=no neurological symptoms, 1=limp tail, 2=weakness of hind limbs or ataxia, 3=incomplete paralysis of hind limbs, 4=complete paralysis of hind limbs, 5=complete paralysis of all four limbs, 6=dead. Diseased animals were provided easy access to food and water.

A further assay deals with spleenocytes. Briefly: Th1/Th2 cytokine levels in culture supernates of spleenocytes from treatment groups. To be noted: spleenocytes at the end of four weeks, FIG. 4; for decrease in IFN-γ levels: stimulated 48 h. The format is cell-based, mice. Here is the method:
Levels of various cytokines in culture supernates were determined by sandwich ELISA using multiplex cytokine ELISA kit (Millipore). Briefly, 100 μl of cell culture supernates from various groups were incubated with antibody (against various pro and anti-inflammatory cytokines) coated fluorescent polystyrene beads in 96 well microtiter plates, stained with PE-conjugated secondary antibody, provided in the kit and samples were acquired on […] (Bio-rad).
Effect of a group of analogs comprising analogs viz.
Effect of β^3-homo amino acid containing copolymers viz S101, S102 and S103 on Th1/Th2 cytokine balance was studied in comparison to other copolymers viz. GA, J91, J92, for which culture supernates of spleenocytes grown in the presence of various copolymers, were assayed using ELISA to determine the levels of various cytokines. […] Most noteworthy change was in the levels of IL-2 in the S101, S102 and S103 treated groups, where the levels were brought down by 60-70%.

Assay [3] relates to SJL/J mice exhibiting MBP (85-109) induced relapsing remitting form of EAE. Nature of the assay: Therapeutic activity in MBP (85-109) induced relapsing remitting EAE, treatment from day 11. The class given is in vivo. To be noted: for Therapeutic activity in comparison to GA (Therapeutic activity (Analogs) − Therapeutic activity GA) / Therapeutic activity in comparison to J5 (Therapeutic activity (Analogs) − Therapeutic activity (J5)) / Therapeutic activity = % reduction in cumulative clinical disability score: SJL/J mice, RR EAE; for Therapeutic activity in comparison to GA (Therapeutic activity (Analogs) − Therapeutic activity GA) / Therapeutic activity in comparison to J5 (Therapeutic activity (Analogs) − Therapeutic activity (J5)): 0.1 mg daily for two weeks. The procedure, abridged:
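Female SJL/J mice, 8-10 weeks, immunized s.c. with 0.2 mg MBP (85-109) in CFA plus 200 ng pertussis toxin i.p. on days 0 and 2. Treatment ran from day 11 for two weeks. Clinical disability was scored daily on a 0-6 scale.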

The next assay has as its target T1, HLA DR2 (Homo sapiens, UniProt P01903+P01911).
T1 construct: endogenous in cells; host or cells: MGAR lymphoblastoid B cell line (IHWG, Seattle)
Nature of the assay: Inhibition of binding of biotinylated MBP (85-99) to HLA DR2. To be noted: 5 μM competitor, 0.5 μM biotinylated MBP (85-99); FIG. 3. Here is the method: HLA DR2 molecules were affinity purified from MGAR (a lymphoblastoid B cell line expressing HLA DR2 obtained from IHWG, Seattle, Wash. —USA) cell line. Cells were cultured in RPMI 1640 supplemented with 10% FBS, 2 mM glutamine, 50 U/ml penicillin and 50 μg/ml streptomycin. The anti-DR antibody L243 was purchased from Santacruz Biotech.
HLA DR2 was purified to a purity of 90-95% by immunoaffinity purification. Briefly, MGAR cells were detergent solubilized to prepare the membrane fraction which was passed sequentially through sepharose CL-6B, normal mouse serum-affinity-gel, Protein A sepharose CL-4B and L243-protein A sepharose-CL-4B at a flow rate of around 10-11 ml/h. The final eluate was dialyzed against 0.1% deoxycholate, 10 mM Tris-HCl (pH 8.0) and concentrated using centricon concentrators from Millipore. Protein concentration was determined using bicinchoninic acid (BCA) assay (Sigma). The obtained protein fraction was also run on SDS-PAGE gel to confirm identity and purity.
Copolymers (GA, J91, J92, S101 to S109) and peptide analogs (S1-S82) at a final concentration of 5 μM were coincubated with biotinylated MBP (85-99; purchased from Bioconcept Labs Pvt. Ltd. India) at a final concentration of 0.5 μM and HLA DR2 (0.5 μg/sample) molecules for 40 h at 37° C. and transferred to a 96-well microtiter assay plates coated with 1 μg/well purified L243 mAb. Coating of microtiter plates was performed with 100 μl of L243 mAb in PBS for 18 h at 4° C. […] 3,3′,5,5′-tetramethylbenzidine (TMB, substrate for […]) was added to each well and absorbance at 410 nm was recorded on an ELISA reader (TECAN infinite M200).
Ability of analogs viz. […] Most of the analogs designed herein viz.
β^3-homo amino acid containing copolymers viz. […] Copolymers containing β^3-homo amino acids viz.

Assay [4] deals with MOG (35-55) induced chronic EAE in C57BL6/J mice. Briefly: Prophylactic (pre-treatment) efficacy in MOG (35-55) induced chronic EAE. The class given is in vivo. To be noted: FIGS. 2j and 2k. Here is the method: as §1
The test system of assay [5] is MBP (85-109) reactive CD4+ and CD8+ T-cells. Nature of the assay: Recall (proliferative) response of CD4+ and CD8+ T-cells to MBP (85-109) after pre-treatment. The format is cell-based, mice. From the text:
Spleen derived dendritic cells were isolated to >95% purity using plasmacytoid dendritic cell isolation kit from Miltenyi Biotech. Spleenocytes were isolated from spleen of SJL/J mice, minced and passed through a 70 micron cell strainer (BD Falcon) to get a single cell suspension. The resulting spleenocytes were first depleted of CD3+ T cells and CD 49b/pan NK+ cells using LD depletion columns provided in the kit. The CD3 and CD 49b negative cell population was collected, counted and positive selection of CD11c+ dendritic cells was performed on positive selection columns provided in the kit. The CD11c+ population was collected by removing the column from the magnetic stand, stained with trypan blue to check the viability and purity was determined using flow cytometry.
After two weeks spleenocytes were isolated, fractioned into CD4+ and CD8+ T-cells, cultured with MBP (85-109) pulsed spleen derived dendritic cells and assayed for proliferation (^3[H]-thymidine). […] As recall response to MBP (85-109) is a direct measure of frequencies of MBP (85-109) reactive CD4+ or CD8+ T-cells, in the immunized animals.

Assay [6] relates to MOG (35-55) induced chronic progressive EAE in C57BL6/J mice. Briefly: Therapeutic effect in MOG (35-55) induced chronic progressive EAE. To be noted: daily dose of 5 mg/Kg body weight, FIGS. 2e and 2f. The class given is in vivo. The method, then:
as §1
Some analogs viz. […] Dosage kinetic experiments with analog S27 representing the group of analogs comprising viz.

Where [7] appears, read: synthetic peptides, 0.1 mg daily for two weeks from day 11 post-immunization.

Non-standard residues stand in square brackets, D forms with d. No end group written: not given here. β3hY = N[C@H](CC(=O)O)Cc1ccc(O)cc1; β3hK = NCCCC[C@H](N)CC(=O)O; β3hV = CC(C)[C@H](N)CC(=O)O; β3hA = C[C@H](N)CC(=O)O

T1 sequence (P01903 26-254): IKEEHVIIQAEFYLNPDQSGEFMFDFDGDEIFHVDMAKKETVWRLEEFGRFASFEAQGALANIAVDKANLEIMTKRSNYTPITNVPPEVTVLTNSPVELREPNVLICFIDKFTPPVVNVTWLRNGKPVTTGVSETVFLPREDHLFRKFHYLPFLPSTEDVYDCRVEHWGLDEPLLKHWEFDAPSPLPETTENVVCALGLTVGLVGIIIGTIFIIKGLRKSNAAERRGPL
T1 sequence (P01911 30-266): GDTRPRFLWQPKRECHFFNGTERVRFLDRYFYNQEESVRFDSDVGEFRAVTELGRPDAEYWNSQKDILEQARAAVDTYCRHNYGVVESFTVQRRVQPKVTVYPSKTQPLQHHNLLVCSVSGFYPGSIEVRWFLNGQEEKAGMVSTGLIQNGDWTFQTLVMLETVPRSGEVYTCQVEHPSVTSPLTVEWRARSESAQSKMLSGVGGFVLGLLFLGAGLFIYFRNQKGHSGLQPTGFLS

“Glatiramer Acetate [GA, reference compound]”: in assay [1], the “success rate in reducing the relapses” value is 30%. In addition, in assay [2], the “effect on clinical onset of disease” value is reported as “no effect on clinical onset of disease”. Further, in the assay with spleenocytes, the “decrease in IFN-γ levels” value is given as “approximately 70%” and the “rise in IL-4 levels” value is approximately 2 fold. In assay [3], the “Therapeutic activity in comparison to GA (Therapeutic activity (Analogs) − Therapeutic activity GA)” value is on record as 0% and the “Therapeutic activity in comparison to J5 (Therapeutic activity (Analogs) − Therapeutic activity (J5))” value is −3.957%. In addition, the “Therapeutic activity = % reduction in cumulative clinical disability score” value (“Therapeutic activity = % reduction” below) in assay [3] (amino acid copolymers, 0.1 mg daily for two weeks from day 11) was found to be 27.12%. The “Therapeutic activity = % reduction” value in assay [3] (setting [7]) is listed as 31.3369%. For the same substance, at HLA DR2, the “inhibition of binding of biotinylated MBP (85-99) to HLA DR2” value is recorded as approximately 21%.
With “Kβ^3Vβ^3Eβ^3Aβ^3Yβ^3Kβ^3Aβ^3Aβ^3Aβ^3Aβ^3 ([β3hK][β3hV]X[β3hA][β3hY][β3hK][β3hA][β3hA][β3hA][β3hA]; not fully specified (residue 3); printed as Kβ^3Vβ^3Eβ^3Aβ^3Yβ^3Kβ^3Aβ^3Aβ^3Aβ^3Aβ^3) [Analog S27]”, the suppression after pre-treatment in assay [4] is given as 55-60%. Further, the “delay of clinical onset of disease” value in assay [2] is recorded as approximately 3 days. The “recall response to MBP (85-109), CD4+ T-cell fraction (3[H]-thymidine proliferation)” value in assay [5] (0.5 mg in IFA a day before immunization, spleenocytes after two weeks, FIG. 1a) is given as “considerable suppression”. Besides, in assay [5] (0.5 mg in IFA a day before immunization, spleenocytes after two weeks, FIG. 1b), the “recall response to MBP (85-109), CD8+ T-cell fraction, suppression compared to J5 or GA treated group” value was “much more pronounced”. In addition, the “recall response to purified protein derivative (PPD)” value in assay [5] (specificity control antigen, FIGS. 1a and b) is given as “remained unaffected”. Besides, in the assay on spleenocytes, the “decrease in IFN-γ levels” value was “approximately 70%” and the “change in IL-4 levels” value is “only a marginal increase”. In addition, the “duration of effect once the treatment is stopped” value in assay [3] (FIG. 2b) is reported as “up to two weeks”. Moreover, in assay [3], the “Therapeutic activity in comparison to GA (Therapeutic activity (Analogs) − Therapeutic activity GA)” value is on record as 33.8% and the “Therapeutic activity in comparison to J5 (Therapeutic activity (Analogs) − Therapeutic activity (J5))” value was determined as 29.84%. Moreover, the “efficacy relative to GA” value in assay [3] (both treatment and pre-treatment scenarios) is reported as “approximately two times better”. The same substance registered an optimum daily dosage in assay [3] (dosage kinetic experiments, rodents, FIGS. 2c and 2d) of 5 mg/kg body weight. Moreover, in assay [3] (setting [7]), the “Therapeutic activity = % reduction” value is given as 65.13%. Further, the “inhibition of binding of biotinylated MBP (85-99) to HLA DR2” value with HLA DR2 is given as “approximately 60%”. In assay [6], the “reduction in clinical disability score” value is approximately 60%.

The values above are taken from US20140348861A1, “SYNTHETIC PEPTIDES AND RANDOM COPOLYMERS FOR THE TREATMENT OF AUTOIMMUNE DISORDERS” (NATIONAL INSTITUTE OF IMMUNOLOGY, priority 2011, published 2014).
